Holding throughout (type): biochemical
The target in assay [1] is T1, human cathepsin B (Homo sapiens, UniProt P07858).
T1 construct: purchased R & D Systems 953-CY-010
In words: Cathepsin B activity with fluorogenic Z-peptide-AMC substrates (specific activity, pH profile). To be noted: for cleavage by cathepsin B: pH 4.6 and 7.2, 40 μM substrate ('Table 1' comparison). The procedure: (§1) Cathepsin B activity with Z-Arg-Arg-AMC and Z-Phe-Arg-AMC substrates at pH 4.6 and 7.2. Cathepsin B (0.04 ng/μL) activity was assessed with Z-Arg-Arg-AMC and Z-Phe-Arg-AMC substrates (40 μM final concentration) (Table 1) in 40 mM citrate phosphate buffer pH 4.6 or Tris-HCl pH 7.2 in 1 mM EDTA, 100 mM NaCl, and 5 mM DTT with incubation at room temperature (25° C.) in triplicate and AMC fluorescence readings per second (RFU/s) (excitation 360 nm, emission 460 nm) were recorded over a period of 30 min by BioTek Synergy HTX plate reader (Software Version 3.08.01). Enzyme initial velocity was calculated using the highest slope recorded for 10 consecutive fluorescent readings within the initial 30 min. The mean and standard deviation (SD) were determined from triplicates. RFU/s were converted to pmol/min/μg (specific activity) using AMC standard curves. All data were plotted, calculated, and analyzed using GraphPad Prism (Version 9.4.1).
Analysis of pH-dependent cathepsin B activity with fluorogenic substrates designed from MSPMS data. For comparison of cathepsin B activity at pH 4.6, pH 5.5, and pH 7.2 with multiple fluorogenic substrates, cathepsin B (0.04 ng/μL) was incubated with 40 μM substrates consisting of Z-Lys-Arg-AMC. Z-Phe-Arg-AMC. Z-Arg-Arg-AMC. Z-Gly-Lys-Arg-AMC, Z-Val-Lys-Arg-AMC, Z-Tyr-Lys-Arg-AMC. Z-Phe-Lys-Arg-AMC, Z-Trp-Lys-Arg-AMC, Z-Leu-Lys-Arg-AMC, Z-Ala-Lys-Arg-AMC, Z-Nle-Arg-Arg-AMC, and Z-Nle-Lys-Arg-AMC. AMC product formation (RFU/s) was monitored in 40 mM citrate phosphate, pH 4.6 and pH 7.2, 1 mM EDTA, 100 mM NaCl, and 5 mM DTT was determined from the average of RFU/s triplicates at each pH condition.
For analysis of pH-dependent activity cathepsin B (0.04 ng/μL), proteolytic activity was monitored over the pH range of pH 2.2-9.0 in 40 mM citrate phosphate (pH 2.2 to pH 6.6) and 40 mM Tris-HCl (pH 7.0 to 9.0), 1 mM EDTA, 100 mM NaCl, and 5 mM DTT, with preincubation in each pH buffer for 10 min prior to initiating the assay by addition of Z-Nle-Lys-Arg-AMC, Z-Arg-Arg-AMC, or Z-Phe-Arg-AMC to a final concentration of 40 μM to generate the pH curve data.

For assay [2], the target named is T2, cathepsin L (Homo sapiens, UniProt P07711).
T2 construct: active cathepsin L (R & D Systems, #952-CY-010); purchased R & D Systems 952-CY-010
In words: Substrate selectivity: cleavage of AMC substrates by cathepsin L. The procedure:
[Worded in the source for another target; used here, by the source, with some conditions changed.] as §1
For evaluation of cathepsin B and cysteine cathepsins for substrate selectivity each cathepsin was incubated with 4 μM substrates consisting of Z-Phe-Arg-AMC. Z-Arg-Arg-AMC, and Z-Nle-Lys-Arg-AMC, activity was monitored in 40 mM citrate phosphate (pH 4.6, pH 5.5 and pH 7.2), 1 mM EDTA, 100 mM NaCl, and 5 mM DTT for cathepsin B (0.04 ng/μL), cathepsin K (0.03 ng/μL), cathepsin L (0.03 ng/μL), cathepsin S (0.14 ng/μL), cathepsin V (0.04 ng/μL), and cathepsin X (0.20 ng ng/μL). Since cathepsin X cannot cleave any of the AMC substrates, MCARPPGFSAFK(Dnp)-OH (R & D Systems #ES005) was used to verify that cathepsin X was active.

The target of assay [3] is T3, cathepsin K (Homo sapiens, UniProt P43235).
T3 construct: active cathepsin K (Abcam, #ab157067); purchased Abcam ab157067
T3 sequence (P43235 115-329): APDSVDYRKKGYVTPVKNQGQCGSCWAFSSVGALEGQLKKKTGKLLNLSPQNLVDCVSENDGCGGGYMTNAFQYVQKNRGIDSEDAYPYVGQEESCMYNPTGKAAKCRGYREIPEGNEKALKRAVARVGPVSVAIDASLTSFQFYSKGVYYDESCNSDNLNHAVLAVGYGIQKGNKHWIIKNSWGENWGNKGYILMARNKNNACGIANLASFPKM
In words: Substrate selectivity: cleavage of AMC substrates by cathepsin K.

Assay [4] deals with T4, cathepsin S (Homo sapiens, UniProt P25774).
T4 construct: purchased R & D Systems 1183-CY-010
In words: Substrate selectivity: cleavage of AMC substrates by cathepsin S. The procedure: as §1
(§2) […] Z-Arg-Arg-AMC, and Z-Nle-Lys-Arg-AMC, activity was monitored in 40 mM citrate phosphate (pH 4.6, pH 5.5 and pH 7.2), 1 mM EDTA, 100 mM NaCl, and 5 mM DTT for cathepsin B (0.04 ng/μL), cathepsin K (0.03 ng/μL), cathepsin L (0.03 ng/μL), cathepsin S (0.14 ng/μL), cathepsin V (0.04 ng/μL), and cathepsin X (0.20 ng ng/μL). Since cathepsin X cannot cleave any of the AMC substrates, MCARPPGFSAFK(Dnp)-OH (R & D Systems #ES005) was used to verify that cathepsin X was active.

Assay [5] has as its target T5, cathepsin V (Homo sapiens, UniProt O60911).
T5 construct: purchased R & D Systems 1080-CY-010
In words: Substrate selectivity: cleavage of AMC substrates by cathepsin V. The procedure: as §1, §2

Assay [6] has as its target T6, mouse cathepsin B (Mus musculus, UniProt P10605).
T6 construct: purchased R & D Systems 965-CY-010
In words: Mouse cathepsin B specific activity with AMC substrates. To be noted: pH 4.6, 5.5 and 7.2; 40 μM substrate. The protocol:
FIGS. 11a-11b. […] (FIG. 11a) pH-dependence of mouse cathepsin B activity with Z-Nle-Lys-Arg-AMC compared to Z-Arg-Arg-AMC and Z-Phe-Arg-AMC substrates. Cathepsin B specific activity with the three different substrates (40 μM) were assessed at pH 4.6, 5.5, and 7.2. Data points are shown as the mean+SD (n=3).

The target of assay [7] is T7, cathepsin B in homogenates of human neuroblastoma SHSY-5Y and SK-N-MC cells (Homo sapiens, UniProt P07858).
T7 construct: homogenates of human neuroblastoma cell lines, SHSY-5Y and SK-N-MC, and mouse microglia cell line, BV2; endogenous in cells; host or cells: SH-SY5Y and SK-N-MC human neuroblastoma cell homogenates
In words: Cathepsin B (CA-074-sensitive) activity in human neuroblastoma cell homogenates. To be noted: for cathepsin B activity detected in cell homogenate: pH 4.6; for monitoring of cathepsin B (CA-074-sensitive) activity in cell homogenate: pH 4.6, 5.5, 7.2. The procedure:
(§3) Cathepsin B activity in human neuroblastoma and mouse microglia. Characterization of Z-Nle-Lys-Arg-AMC substrate in proteolytic activity assays for specific cathepsin B activity of cell homogenates (prepared in 0.32 M sucrose) was conducted at 40 mM citrate phosphate pH 4.6, 5.5, and 7.2, 5 mM DTT, 1 mM EDTA, 100 mM NaCl, 1.2% DMSO, and homogenates of human neuroblastoma cell lines, SHSY-5Y and SK-N-MC, and mouse microglia cell line, BV2. A concentration of 6 μM Z-Nle-Lys-Arg-AMC, Z-Arg-Arg-AMC, and Z-Phe-Arg-AMC substrates were used in the proteolytic activity assays. Cell homogenates were diluted 1:10 prior to addition to assays. […] Assays were performed in 96-well plates at room temperature (25° C.) in a total volume of 100 μl with triplicates. Cell homogenates were incubated with CA-074 or inhibitor controls at RT for 30 minutes in the absence of substrate, followed by addition of substrate and incubation at 37° C. Fluorescence was quantified at 15, 30, and 60 minutes after substrate was added, by a Biotek Synergy HTX microplate reader with excitation at 360 nm, and emission at 460 nm, gain 50, top optics and read height at 1 mm. Prism GraphPad software was used to analyze data.

Assay [8] has as its target T8, cathepsin B in homogenates of mouse microglia BV2 cells (Mus musculus, UniProt P10605).
T8 construct: homogenates of human neuroblastoma cell lines, SHSY-5Y and SK-N-MC, and mouse microglia cell line, BV2; endogenous in cells; host or cells: BV2 mouse microglia cells (homogenate; cytosol fraction in the low nutrient stress assay)
In words: Cathepsin B (CA-074-sensitive) activity in mouse microglia cell homogenates. To be noted: for cathepsin B activity detected in cell homogenate: pH 4.6; for monitoring of cathepsin B (CA-074-sensitive) activity in cell homogenate: pH 4.6, 5.5, 7.2. The procedure:
as §3

Assay [9] has as its target T1, human cathepsin B. In words: Cathepsin B activity with fluorogenic Z-peptide-AMC substrates (specific activity, pH profile). To be noted: pH 4.6 and pH 7.2; substrates at 4 μM (FIG. 3).
[10] abbreviates: pH 4.6, 5.5 and 7.2 (FIGS. 5a-5c).
The mark [11] stands for this setting: pH 4.6 and 7.2, 40 μM substrate ('Table 1' comparison).
Where [12] appears, read: CA-074 1 μM, 30 min pre-incubation.

[ ]: non-standard residue; d: D form. The star is where a group is joined. AMC = Cc1cc(=O)oc2cc(N*)ccc12; Nle = CCCC[C@H](N)C(=O)O; Cbz = O=C(OCc1ccccc1)*

T4 sequence (P25774 115-331): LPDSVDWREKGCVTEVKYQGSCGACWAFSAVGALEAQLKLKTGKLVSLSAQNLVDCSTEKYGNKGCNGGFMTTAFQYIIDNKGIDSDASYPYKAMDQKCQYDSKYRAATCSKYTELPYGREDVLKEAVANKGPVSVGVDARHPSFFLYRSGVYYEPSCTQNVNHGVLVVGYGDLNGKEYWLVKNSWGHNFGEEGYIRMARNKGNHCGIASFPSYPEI
T2 sequence (P07711 114-333): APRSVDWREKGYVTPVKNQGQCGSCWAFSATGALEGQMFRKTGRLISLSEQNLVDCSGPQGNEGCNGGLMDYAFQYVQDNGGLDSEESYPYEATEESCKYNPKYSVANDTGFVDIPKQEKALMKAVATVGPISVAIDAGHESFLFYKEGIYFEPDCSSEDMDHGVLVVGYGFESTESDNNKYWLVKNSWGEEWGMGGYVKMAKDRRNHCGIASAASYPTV
T5 sequence (O60911 114-334): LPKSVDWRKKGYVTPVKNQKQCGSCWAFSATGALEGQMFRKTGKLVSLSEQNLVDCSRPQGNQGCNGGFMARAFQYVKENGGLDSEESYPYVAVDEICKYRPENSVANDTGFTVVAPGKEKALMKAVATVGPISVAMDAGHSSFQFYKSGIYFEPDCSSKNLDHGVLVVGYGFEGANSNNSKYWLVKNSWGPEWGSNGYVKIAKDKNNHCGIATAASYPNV
T8 sequence (P10605 80-333): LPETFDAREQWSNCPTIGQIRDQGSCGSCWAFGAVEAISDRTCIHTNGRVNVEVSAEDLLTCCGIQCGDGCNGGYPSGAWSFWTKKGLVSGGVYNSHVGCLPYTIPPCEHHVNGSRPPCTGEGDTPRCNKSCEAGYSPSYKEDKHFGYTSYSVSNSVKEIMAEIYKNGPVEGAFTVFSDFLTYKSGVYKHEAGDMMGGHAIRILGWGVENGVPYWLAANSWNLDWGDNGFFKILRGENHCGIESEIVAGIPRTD
T6 sequence (P10605 80-333 limits assumed): as the sequence (P10605 80-333) above

As for Cbz-[Nle]-Lys-Arg-{AMC}, in assay [1] (pH profile pH 2 to 9), the “pH of maximal activity” value is 5.5-6.5 pH. Further, in assay [2] (setting [10]), the “cleavage by cathepsin L” value was “not cathepsins L. K. S, and V activities”. Further, the “cleavage by cathepsin K” value in assay [3] (setting [10]) was “not cathepsins L. K. S, and V activities”. The “cleavage by cathepsin S” value in assay [4] (setting [10]) was “not cathepsins L. K. S, and V activities”. Further, the “cleavage by cathepsin V” value in assay [5] (setting [10]) is “not cathepsins L. K. S, and V activities”. For the same molecule, in [6], the “mouse cathepsin B specific activity” value is recorded as “highest specific activity”. In [7], the “cathepsin B activity detected in cell homogenate” value (“cathepsin B activity detected” for short) was “robust cathepsin B activity” and the “monitoring of cathepsin B (CA-074-sensitive) activity in cell homogenate” value (“monitoring of cathepsin B” below) is given as “highly sensitive for monitoring cathepsin B activity”. In addition, in assay [8], the “cathepsin B activity detected” value is listed as “robust cathepsin B activity” and the “monitoring of cathepsin B” value is on record as “highly sensitive for monitoring cathepsin B activity”. The “cathepsin B specific activity compared among substrates” value in assay [9] is listed as “higher than all other substrates at both pHs”.

Consider Cbz-Arg-Arg-{AMC}, for which the “cleavage by cathepsin B at acidic pH” value in [1] (pH 4.6, 40 μM substrate) is listed as “poor cleavage activity”. In assay [1], the “cleavage by cathepsin B” value is “cleaved by cathepsin B and other cysteine cathepsins L, K, S, and V”. Further, the “specific activity at acidic pH as fraction of specific activity at neutral pH” value in assay [1] (pH 4.6 vs pH 7.2) is listed as “one-third”. Also, in assay [1] (pH 7.2, 40 μM substrate), the “cleavage by cathepsin B at neutral pH” value is on record as “readily cleaved”. Also, the “cleavage by cathepsin L” value in [2] (setting [10]) was “cleaved by cathepsins L and V”; in assay [2] (setting [11]), “cleaved by cathepsin B and other cysteine cathepsins L, K, S, and V”. In addition, the “cleavage by cathepsin K” value in [3] (setting [11]) is “cleaved by cathepsin B and other cysteine cathepsins L, K, S, and V”. In assay [4] (setting [11]), the “cleavage by cathepsin S” value was “cleaved by cathepsin B and other cysteine cathepsins L, K, S, and V”. The “cleavage by cathepsin V” value is “cleaved by cathepsins L and V” in assay [5] (setting [10]); “cleaved by cathepsin B and other cysteine cathepsins L, K, S, and V” in assay [5] (setting [11]). In addition, in [6], the “mouse cathepsin B specific activity” value is “low”. Also, the “cathepsin B activity detected” value in assay [7] and in [8] was “none or little activity” throughout. For the same molecule, the “monitoring of cathepsin B” value in assay [7] and in [8] was “only low cathepsin B activity” each time.

With Cbz-Lys-Arg-{AMC}, in [9], the “cathepsin B specific activity compared among substrates” value is reported as “lower activity than Z-Nle-Lys-Arg-AMC”.

Take Cbz-Leu-Lys-Arg-{AMC}: the “cathepsin B specific activity compared among substrates” value in assay [9] is on record as “less activity than Z-Nle-Lys-Arg-AMC”.

For Cbz-Phe-Arg-{AMC}, the “cleavage by cathepsin B” value in [1] was “cleaved by cathepsin B and other cysteine cathepsins L, K, S, and V”. In addition, the “cleavage by cathepsin L” value in assay [2] (setting [10]) is “cleaved by cathepsin L with greater activity than that for cathepsin B”; in assay [2] (setting [11]) it was “cleaved by cathepsin B and other cysteine cathepsins L, K, S, and V”. For the same molecule, the “cleavage by cathepsin K” value in [3] (setting [10]) was “also cleaved by cathepsins K and V”; in assay [3] (setting [11]) it was “cleaved by cathepsin B and other cysteine cathepsins L, K, S, and V”. The “cleavage by cathepsin S” value in [4] (setting [11]) was “cleaved by cathepsin B and other cysteine cathepsins L, K, S, and V”. Further, the “cleavage by cathepsin V” value is “also cleaved by cathepsins K and V” in assay [5] (setting [10]); “cleaved by cathepsin B and other cysteine cathepsins L, K, S, and V” in assay [5] (setting [11]). Also, the “mouse cathepsin B specific activity” value in assay [6] is recorded as “moderate specific activity”. In addition, the “monitoring of cathepsin B” value in assay [7] and in [8] was “detected cathepsin B as well as other cysteine cathepsin activity” throughout.

`CCCNC(=O)[C@H]1O[C@@H]1C(=O)N[C@H](C(=O)N1CCC[C@H]1C(=O)O)[C@@H](C)CC` [CA-074]: the “effect on cathepsin B activity in cell homogenate” value in assay [7] (setting [12]) and in assay [8] (setting [12]) was “inhibition” each time.

With Cbz-[Nle]-Arg-Arg-{AMC}, the “less activity compared to Z-Nle-Lys-Arg-AMC” value in assay [1] (pH 4.6) was “about 30%”; in assay [1] (pH 7.2) it was about 50%.

Source of the values: patent US20260265298A1, “PEPTIDE SUBSTRATES AND INHIBITORS OF CATHEPSIN B” (The Regents of the University of California, priority 2023, published 2026).
